Values quoted from earlier work, collected in patent US20060287318A1, “Method for treating glaucoma III B” (priority 2000, published 2006).

Experiments:
[1] = literature description of a compound series
Aged Rhesus monkeys = conditions: drug treated vs. control eye; baseline and pilocarpine-stimulated conditions; reported in the concurrently filed application "Methods for Treating Glaucoma I"
Rhesus monkeys = conditions: accommodative responses to i.m. pilocarpine; reported in the concurrently filed application "Methods for Treating Glaucoma I"

Structure (SMILES) | glucose lowering effect [1] | improvement in ophthalmologic function (fluid outflow facility) (Aged Rhesus monkeys) | improvement in accommodation (Rhesus monkeys)
Cc1ccc(C(=O)C[n+]2ccccc2)cc1.[Cl-] [1-[2-(4-methylphenyl)-2-oxoethyl]-pyridinium chloride] | inactive |  | 
Cc1sc[n+](CC(=O)c2ccccc2)c1C.[Cl-] [4,5-dimethyl-3-(2-oxoethyl-phenethyl)thiazolium chloride] |  | improvement has been illustrated | Improvement in accommodation has been illustrated
